From US9204653B2, “5-fluoro pyrimidine derivatives” (DOW AGROSCIENCES LLC, priority 2008, dated 2015)
Read-outs that look alike come from different tables or passages of the source.

System: Mycosphaerella graminicola; Anamorph: Septoria tritici; Bayer Code SEPTTR
Experiment: Leaf blotch of wheat, foliar fungicide treatment, one day protectant (1DP) or three day curative (3DC)
Format: in vivo, Septoria tritici on wheat plants (variety Yuma)
Conditions: Zymoseptoria tritici, rating of percent disease control
[1] = 24 h, one day protectant, read-out: SETTTR 1DP 25 ppm
[2] = 24 h, one day protectant, read-out: SEPTTR 1DP 100 ppm
[3] = 72 h, three day curative, read-out: SEPTTR 3DC 25 ppm
[4] = 72 h, three day curative, read-out: SEPTTR 3DC 100 ppm

Row | SMILES | pest or weed control at 25 ppm [1] [%] | pest or weed control at 100 ppm [2] [%] | pest or weed control at 25 ppm [3] [%] | pest or weed control at 100 ppm [4] [%]
1 | Nc1nc(OCc2ccc(Cl)nc2)ncc1F [Compound 644] | 76 to 100 | 76 to 100 | 76 to 100 | 76 to 100
2 | COc1ccc(CCOc2ncc(F)c(N)n2)cc1 [Compound 645] | 26 to 50 | 76 to 100 | 0 to 25 | 51 to 75
3 | O=CNc1nc(OS(=O)(=O)c2ccccc2)ncc1F [Compound 646] | 51 to 75 | 76 to 100 | 76 to 100 | 76 to 100
4 | C=CCOC(=O)Oc1ncc(F)c(/N=C/N(C)C)n1 [Compound 647] | 76 to 100 | 76 to 100 | 76 to 100 | 76 to 100
5 | Nc1nc(OCc2ccc(OCc3ccc(F)cc3)cc2)ncc1F [Compound 648] | 76 to 100 | 76 to 100 | 76 to 100 | 76 to 100
6 | CCCCOc1cc(COc2ncc(F)c(N)n2)ccc1OC [Compound 650] | 76 to 100 | 76 to 100 | 76 to 100 | 76 to 100
7 | COc1cccc(COc2ncc(F)c(NOC3CCCCO3)n2)c1 (stereo not drawn) [Compound 652] | 0 to 25 | 51 to 75 | 0 to 25 | 76 to 100
8 | C=CCCOc1ncc(F)c(N)n1 [Compound 653] | 0 to 25 | 0 to 25 | 26 to 50 | 76 to 100
9 | CCOCCOc1cccc(COc2ncc(F)c(NSc3ccccc3[N+](=O)[O-])n2)c1 [Compound 655] | 51 to 75 | 76 to 100 | 51 to 75 | 26 to 50
10 | CC[Si](CC)(CC)Nc1nc(OCc2ccccc2)ncc1F [Compound 656] | 76 to 100 | 76 to 100 | 76 to 100 | 76 to 100
11 | CCCCCCOc1ncc(F)c(N[Si](CC)(CC)CC)n1 [Compound 658] | 0 to 25 | 51 to 75 | 0 to 25 | 51 to 75
12 | COc1ccc(S(=O)(=O)Oc2ncc(F)c(N)n2)cc1 [Compound 660] | 76 to 100 | 76 to 100 | 26 to 50 | 0 to 25
13 | O=[N+]([O-])c1ccccc1SNc1nc(OCc2ccc(F)cc2F)ncc1F [Compound 662] | 0 to 25 | 76 to 100 | 26 to 50 | 26 to 50
14 | COc1ccc(COc2ncc(F)c(/N=C/N(C)C)n2)cc1F [Compound 663] | 76 to 100 | 76 to 100 | 76 to 100 | 76 to 100
15 | CCc1ccccc1NNc1nc(OCc2ccc(F)cc2)ncc1F [Compound 667] | 0 to 25 | 76 to 100 | 0 to 25 | 76 to 100
16 | COCCOC(=O)Nc1nc(OCc2cccc(C#N)c2)ncc1F [Compound 668] | 26 to 50 | 76 to 100 | 76 to 100 | 76 to 100
17 | CN(C)/C=N/c1nc(OC(=O)Oc2ccccc2)ncc1F [Compound 669] | 76 to 100 | 76 to 100 | 76 to 100 | 76 to 100
18 | Cc1ccc(COc2ncc(F)c(NC(=S)NCc3ccccc3F)n2)cc1 [Compound 670] | 51 to 75 | 76 to 100 | 51 to 75 | 76 to 100
19 | Cc1ccc(S(=O)(=O)Oc2ncc(F)c(N)n2)cc1 [Compound 671] | 76 to 100 | 76 to 100 | 76 to 100 | 76 to 100
20 | O=C(CCl)Nc1nc(OCc2ccc(F)cc2)ncc1F [Compound 672] | 76 to 100 | 76 to 100 | 76 to 100 | 76 to 100
21 | CSc1ccc(COc2ncc(F)c(N)n2)cc1 [Compound 673] | 76 to 100 | 76 to 100 | 76 to 100 | 76 to 100
22 | CC[Si](CC)(CC)Nc1nc(OC(C)c2ccc(F)cc2)ncc1F (stereo not drawn) [Compound 674] | 76 to 100 | 76 to 100 | 76 to 100 | 76 to 100
23 | CCOCNc1nc(OCc2ccc(C)cc2)ncc1F [Compound 675] | 76 to 100 | 76 to 100 | 76 to 100 | 76 to 100

Row | SMILES | pest or weed control at 25 ppm [1] [%] | pest or weed control at 100 ppm [2] [%] | pest or weed control at 25 ppm [3] [%] | pest or weed control at 100 ppm [4] [%]
24 | COc1ccccc1COc1ncc(F)c(NC(=O)c2ccccc2)n1 [Compound 676] | 26 to 50 | 76 to 100 | 0 to 25 | 0 to 25
25 | OCNc1nc(OCc2ccccc2)ncc1F [Compound 677] | 76 to 100 | 76 to 100 | 76 to 100 | 76 to 100
26 | CCCNC(=S)Nc1nc(OCc2ccccc2)ncc1F [Compound 678] | 0 to 25 | 76 to 100 | 26 to 50 | 76 to 100
27 | Fc1cnc(OCc2ccccc2)nc1/N=C/N1CCc2ccccc2C1 [Compound 679] | 76 to 100 | 76 to 100 | 76 to 100 | 76 to 100
28 | COc1ccc(OC)c(COc2ncc(F)c(NSc3ccccc3[N+](=O)[O-])n2)c1 [Compound 680] | 0 to 25 | 0 to 25 | 26 to 50 | 26 to 50
29 | Cc1ccc(COc2ncc(F)c(-n3ccnc3)n2)cc1 [Compound 681] | 76 to 100 | 76 to 100 | 76 to 100 | 76 to 100
30 | Nc1nc(OCc2cc(Cl)nc(Cl)c2)ncc1F [Compound 682] | 76 to 100 | 76 to 100 | 76 to 100 | 76 to 100
31 | Fc1cccc(COc2ncc(F)c(/N=C/N3CCOCC3)n2)c1 [Compound 684] | 76 to 100 | 76 to 100 | 76 to 100 | 76 to 100
32 | COc1cc(COc2ncc(F)c(NSc3ccccc3[N+](=O)[O-])n2)cc(OC)c1 [Compound 685] | 0 to 25 | 76 to 100 | 0 to 25 | 0 to 25
33 | Fc1ccc(COc2ncc(F)c(-n3ccnc3)n2)cc1 [Compound 688] | 76 to 100 | 76 to 100 | 76 to 100 | 76 to 100
34 | Nc1nc(OCc2ccc(Cl)cc2)ncc1F [Compound 689] | 76 to 100 | 76 to 100 | 76 to 100 | 76 to 100
35 | N#Cc1cccc(COc2ncc(F)c(NC(=O)OCc3ccccc3)n2)c1 [Compound 690] | 51 to 75 | 76 to 100 | 76 to 100 | 76 to 100
36 | Cc1cc(C)c(COc2ncc(F)c(N)n2)cc1C [Compound 691] | 51 to 75 | 76 to 100 | 51 to 75 | 76 to 100
37 | COc1cccc(COc2ncc(F)c(/N=C/N(C)C)n2)c1 [Compound 692] | 76 to 100 | 76 to 100 | 76 to 100 | 76 to 100
38 | Nc1nc(OCc2cc(F)c(F)c(F)c2F)ncc1F [Compound 693] | 76 to 100 | 76 to 100 | 76 to 100 | 76 to 100
39 | CCCCCCOc1ncc(F)c(NC(C)=O)n1 [Compound 695] | 0 to 25 | 76 to 100 | 0 to 25 | 26 to 50
40 | CC(C)(C)c1ccc(COc2ncc(F)c(N)n2)cc1 [Compound 696] | 76 to 100 | 76 to 100 | 51 to 75 | 76 to 100
41 | O=C(Nc1ccsc1)Nc1nc(OCCc2ccc(Cl)cc2)ncc1F [Compound 697] | 0 to 25 | 0 to 25 | 26 to 50 | 26 to 50
42 | COc1ccc(COc2ncc(F)c(N)n2)c(Cl)c1OC [Compound 698] | 76 to 100 | 76 to 100 | 76 to 100 | 76 to 100
43 | Nc1nc(OCc2cnccn2)ncc1F [Compound 699] | 76 to 100 | 76 to 100 | 51 to 75 | 76 to 100
44 | Fc1ccc(COc2ncc(F)c(N/N=C/c3ccccc3Cl)n2)cc1 [Compound 700] | 0 to 25 | 51 to 75 | 26 to 50 | 76 to 100
45 | Cc1ccc(COc2ncc(F)c(NNC3CCCCC3)n2)cc1 [Compound 701] | 0 to 25 | 76 to 100 | 0 to 25 | 76 to 100
